Reference: publication PMC10144242, “Design, Synthesis, In Vitro, and In Silico Insights of 5-(Substituted benzylidene)-2-phenylthiazol-4(5H)-one Derivatives: A Novel Class of Anti-Melanogenic Compounds” (Molecules, 2023)

Columns and labels:
mushroom tyrosinase [1] = target: T1, mushroom tyrosinase (Agaricus bisporus, UniProt C7FF04); assay: Kinetic studies on mushroom tyrosinase inhibition (Lineweaver–Burk and Dixon plots, L-DOPA substrate); assay type: biochemical; design: purchased Sigma-Aldrich
Experimental: As depicted in Figure 2, the mechanisms of tyrosinase inhibition were analyzed using Lineweaver–Burk plots. […] Each of the four straight lines produced at each inhibitor concentration converged to a single point on the y-axis. […] In contrast, in derivative 3, four straight lines generated at each inhibitor concentration intersected at a point in the second quadrant. According to the Lineweaver–Burk plot, as the inhibitor concentration increased, the Vmax value of 3 decreased, but the KM value increased.
To determine the Ki (inhibition constant) values of (Z)-BPT derivatives 1–3, Lineweaver–Burk plots for 1–3 were transformed into the corresponding Dixon plots (Figure 3). Each Dixon plot obtained from each Lineweaver–Burk plot produced four straight lines that intersected at one point in the second quadrant. The vertical lines from the merge point to the x-axis provide the Ki value of each (Z)-BPT derivative.
To determine the mode of action, Lineweaver–Burk plots of (Z)-BPT derivatives 1–3 were acquired. In brief, 10 µL of (Z)-BPT derivatives 1–3 (final concentrations:0, 3, 6, or 12 µM for 1; 0, 0.05, 0.1, or 0.2 µM for 2; 0, 2.5, 5, or 10 µM for 3) was added to a 96-well plate containing a substrate mixture (170 µL) consisting of an aqueous solution of L-dopa at final concentrations of 0.5, 1.0, 2.0, or 4.0 mM and 14.7 mM potassium phosphate buffer (pH 6.5), and a mushroom tyrosinase aqueous solution (20 µL, 20 units). Using a microplate reader (VersaMax^TM, Molecular Devices, Sunnyvale, CA, USA) to measure the increase in absorbance at a wavelength of 492 nm (ΔOD492/min), the initial rate of dopachrome synthesis in the reaction mixture was estimated. Using five different concentrations of L-dopa, Lineweaver–Burk plots (inverse of the response rate (1/V) vs. inverse of L-dopa concentration (1/(S)) were created. The convergence points of the four plot lines were used to define the mode of action of tyrosinase inhibition.
Figure 2 Lineweaver–Burk plots for the inhibition of mushroom tyrosinase activity by (Z)-BPT derivatives 1–3. […] Three independent experiments with five different concentrations (0.5, 1, 2, 4, and 8 mM) of an L-DOPA substrate were used to measure the augmented dopachrome optical density per minute at 492 nm. The data are shown as mean values of 1/V (an inverse of that optical density per minute). The (Z)-BPT derivatives were used at concentrations of 0 (filled circles), 3 (unfilled circles), 6 (filled triangles), and 12 µM (unfilled triangles) for 1; 0 (filled circles), 0.05 (unfilled circles), 0.1 (filled triangles), and 0.2 µM (unfilled triangles) for 2; and 0 (filled circles), 2.5 (unfilled circles), 5 (filled triangles), and 10 µM (unfilled triangles) for 3. Each experiment was run independently in triplicates.
Figure 3 Dixon plots for the inhibition of mushroom tyrosinase activity by (Z)-BPT derivatives 1–3. The Ki values of (Z)-BPT derivatives 1–3 were obtained from the absolute values of the x-coordinate where four straight lines converged at one point. Three independent experiments with four different concentrations of (Z)-BPT derivatives were conducted to measure the augmented dopachrome optical density per minute at 492 nm. The data are shown as the mean values of 1/V (an inverse of that optical density per minute). The (Z)-BPT derivatives were used at concentrations of 0, 3, 6, and 12 µM for 1; 0, 0.05, 0.1, and 0.2 µM for 2; and 0, 2.5, 5, and 10 µM for 3. The experiments were performed at four different concentrations (0.5, 1, 2, and 4 mM) of L-DOPA. Each experiment was run independently in triplicates.
Target sequence in this assay (C7FF04 1-392 limits assumed): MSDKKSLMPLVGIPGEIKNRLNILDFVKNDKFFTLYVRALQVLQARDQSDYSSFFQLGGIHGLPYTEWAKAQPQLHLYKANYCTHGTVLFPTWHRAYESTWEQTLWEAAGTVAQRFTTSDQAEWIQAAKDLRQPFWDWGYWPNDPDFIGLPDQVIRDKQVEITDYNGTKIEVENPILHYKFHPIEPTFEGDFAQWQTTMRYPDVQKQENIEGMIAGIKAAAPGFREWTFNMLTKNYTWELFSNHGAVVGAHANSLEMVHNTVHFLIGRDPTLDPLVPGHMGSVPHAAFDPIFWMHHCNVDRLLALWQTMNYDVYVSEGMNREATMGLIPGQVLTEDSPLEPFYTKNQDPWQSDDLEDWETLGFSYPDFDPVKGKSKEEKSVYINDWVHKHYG

[2] = DPPH radical scavenging assay; settings: 1 mM, 30 min in the dark
Experimental: The 2,2-diphenyl-1-picrylhydrazyl (DPPH) radical scavenging capacity of the (Z)-BPT derivatives (1 mM) was investigated using L-ascorbic acid (1 mM, vitamin C) as a positive control. […] L-Ascorbic acid scavenged 97.1% of the DPPH radical, whereas (Z)-BPT derivative 1 with a 4-hydroxyl substituent on the β-phenyl ring scavenged 46.5% of the DPPH radical.
The antioxidant properties of (Z)-BPT derivatives 1–14 against DPPH (2,2-diphenyl-1-picrylhydrazyl) radicals were examined using a DPPH radical scavenging assay, as previously described with minor modifications. DPPH solution (180 µL, 0.2 mM) in methanol was mixed with a (Z)-BPT derivative solution (1–14, 20 µL, 10 mM) in dimethyl sulfoxide in each well of a 96-well plate, and the mixture was kept for 30 min in the dark at room temperature. The absorbance at 517 nm was measured using a VersaMax ™ microplate reader (Molecular Devices, Sunnyvale, CA, USA). The capacity of the derivatives to scavenge DPPH radicals was compared with that of L-ascorbic acid, which was used as the positive control. Each experiment was run independently in triplicates.
Figure 10 The radical scavenging effect of (Z)-BPT derivatives on DPPH. The DPPH radical scavenging activities of test samples (1 mM) were assayed after being left in the dark for 30 min. Distilled water and dimethyl sulfoxide (DMSO) were utilized as the solvents for the positive control L-ascorbic acid and the (Z)-BPT derivatives, respectively. Asterisks (***) represent a significant difference between L-ascorbic acid and the (Z)-BPT derivatives, and results are expressed as the mean ± standard error of three different experiments. *** p < 0.001.

B16F10 cells = assay: Cell viability / cytotoxicity, EZ-Cytox assay; assay type: cell-based, murine
Experimental: Before investigating their inhibitory effects on B16F10 cells, the viability of (Z)-BPT derivatives 1–3 was examined in B16F10 cells.
To determine the cell viability, six different concentrations (0, 1, 2, 5, 10, and 20 µM) of (Z)-BPT derivatives 1–3 were used, and the results were examined at two time points (48 and 72 h). […] Based on the cell viability results, the concentrations for cell-based assays related to the melanin production level and cellular tyrosinase activity were determined.
Cytotoxicity studies of (Z)-BPT derivatives 1–3 were performed on B16F10 melanoma cells using the previously established EZ-Cytox (EZ-3000, DoGenBio, Seoul, Republic of Korea) test, and cytotoxicity studies of (Z)-BPT derivatives 1–3 were conducted on B16F10 melanoma cells. Briefly, B16F10 cells were seeded in a 96-well plate at a density of 1 × 10^4 cells/well and cultivated at 37 °C for 24 h in a humid environment with 5% CO2. […] The cells were then incubated at 37 °C for 2 h after 10 µL of the EZ-Cytox solution had been added to each well. To determine the cell viability, the absorbance of each well was measured at 450 nm using a microplate reader (VersaMax^TM, Molecular Devices, Sunnyvale, CA, USA). Each assay was performed in triplicates.
Figure 6 Effects of (Z)-BPT derivatives 1–3 on cell viability in B16F10 cells. Cytotoxic effects were measured using an EZ-Cytox assay at six different concentrations (0, 1, 2, 5, 10, and 20 µM) of 1–3. (A) Derivative 1; (B) Derivative 2; (C) Derivative 3. *** p < 0.001 for non-treated cells vs. cells treated with 3.

mushroom tyrosinase [3] = target: T1, mushroom tyrosinase; assay: Inhibition assay against mushroom tyrosinase (L-tyrosine substrate); assay type: biochemical
Target sequence in this assay (C7FF04 1-392): as the sequence (C7FF04 1-392 limits assumed) above
Experimental: Therefore, the inhibitory effect of 14 synthetic (Z)-BPT derivatives on mushroom tyrosinase was investigated according to a previously described procedure [39].
Tyrosinase inhibition experiments were performed independently in triplicates. […] The IC50 values are presented as the mean ± standard error of the mean (SEM).
Minor modifications were made to the previous description of the inhibitory activity of mushroom tyrosinase [39]. […] After 30 min incubation at 37 °C, the amount of dopachrome produced in the assay mixture was measured at 492 nm using a microplate reader (VersaMax^TM, Molecular Devices, Sunnyvale, CA, USA) for determining the remaining tyrosinase activity. To obtain the IC50 values for each test sample, dose-dependent inhibition studies were performed in triplicates using three to five different concentrations of each test sample.

Row | SMILES | DPPH radical scavenging activity [2] | also measured
1 | O=C1N=C(c2ccccc2)S/C1=C\c1ccc(O)c(O)c1 [Compound 3, (Z)-5-(3,4-Dihydroxybenzylidene)-2-phenylthiazol-4(5H)-one] | 96.2% | Ki (mushroom tyrosinase [1]; Dixon plots, read-out: Ki (inhibition constant)): 4.8 µM; Inhibition type (mushroom tyrosinase [1]; Lineweaver–Burk plot): mixed-type inhibitor; concentrations showing cytotoxic effects (B16F10 cells; at 72 h (first statement of the sentence)): ≥ 5 µM; concentrations showing cytotoxic effects (B16F10 cells; at 72 h (second statement of the sentence)): ≥ 2 µM
2 | COc1cc(/C=C2\SC(c3ccccc3)=NC2=O)ccc1O [Compound 4, (Z)-5-(4-Hydroxy-3-methoxybenzylidene)-2-phenylthiazol-4(5H)-one] | 81.0% | 
3 | CCOc1cc(/C=C2\SC(c3ccccc3)=NC2=O)ccc1O [Compound 5, (Z)-5-(3-Ethoxy-4-hydroxybenzylidene)-2-phenylthiazol-4(5H)-one] | 58.0% | 
4 | COc1ccc(/C=C2\SC(c3ccccc3)=NC2=O)cc1O [Compound 6, (Z)-5-(3-Hydroxy-4-methoxybenzylidene)-2-phenylthiazol-4(5H)-one] | 25.1% | 
5 | O=C1N=C(c2ccccc2)S/C1=C\c1ccccc1O [Compound 7, (Z)-5-(2-Hydroxybenzylidene)-2-phenylthiazol-4(5H)-one] |  | mushroom tyrosinase inhibitory activity (in words) (mushroom tyrosinase [3]): did not exhibit mushroom tyrosinase inhibitory activity
6 | COc1cc(/C=C2\SC(c3ccccc3)=NC2=O)cc(OC)c1O [Compound 12, (Z)-5-(4-Hydroxy-3,5-dimethoxybenzylidene)-2-phenylthiazol-4(5H)-one] | moderate to strong DPPH radical scavenging activity | 
7 | O=C1N=C(c2ccccc2)S/C1=C\c1ccc(O)c(Br)c1 [Compound 13, (Z)-5-(3-Bromo-4-hydroxybenzylidene)-2-phenylthiazol-4(5H)-one] | 14.8% | 
8 | O=C1N=C(c2ccccc2)S/C1=C\c1cc(Br)c(O)c(Br)c1 [Compound 14, (Z)-5-(3,5-Dibromo-4-hydroxybenzylidene)-2-phenylthiazol-4(5H)-one] | 57.3% | 
9 | O=C1O[C@H]([C@@H](O)CO)C(O)=C1O [L-Ascorbic acid, L-ascorbic acid, reference compound] | 97.1% | 
